Assays:
homme = assay: Clinical use by the oral route; assay type: in vivo; settings: voie orale, 2 à 3 comprimés ou gélules (10 à 20 mg chacun) par jour
souris [1] = assay: Interaction with oxotremorine; assay type: in vivo; settings: oxotrémorine 0,5 mg/kg i.p.
Description: Le CRL 40914 est administré à des lots de 6 souris une demi-heure avant l'injection intrapéritonéale de 0,5 mg/kg d'oxotrémorine.
(§1) On a résumé ci-après les résultats des essais qui ont été entrepris chez l'animal avec le CRL 40915, les modalités opératoires étant celles données ci-dessus pour le CR L 40914.

souris [2] = assay: Asphyxic anoxia (gallamine triethiodide); assay type: in vivo
Description: Des lots de 10 souris reçoivent le CRL 40914 une demi-heure avant l'administration intrapéritonéale de 32 mg/kg de triiodoéthylate de gallamine (agent curarisant de référence).
as §1

[3] = system: rats génétiquement hypertendus; assay: Action on the cardiovascular system; assay type: in vivo, rat; settings: 20 mg/kg par voie buccale
Description: Six rats génétiquement hypertendus à cathéter artériel fémoral implanté reçoivent le CRL 40914 à la dose de 20 mg/kg par voie buccale.

souris mâle [4] = assay: Action on intergroup aggressiveness; assay type: in vivo
Description: Cet effet pourrait résulter de la sédation qui se manifeste à faible dose (4 mg/kg) et de l'excitation motrice qui se manifeste à forte dose (64 mg/kg).

souris [5] = assay: Global behaviour and reactivity, mouse; assay type: in vivo
Description: (§2) On a résumé ci-après les résultats des essais qui ont été entrepris chez l'animal avec le CRL 40914, ce produit étant administré, sauf indications contraires, en solution dans l'eau (à pH 5) par voie intrapéritonéale sous un volume de 20 ml/kg chez la souris mâle et de 5 ml/kg chez le rat mâle.
(§3) Des lots de 3 animaux sont observés avant, puis 15 min, 30 min, 1 h, 2 h, 3 h et 24 h après l'administration de CRL 40914. On observe ce qui suit:
as §1

rats = assay: Interaction with amphetamine; assay type: in vivo; settings: rat, 8 mg/kg et 32 mg/kg i.p., amphétamine 2 mg/kg i.p.
Description: L'amphétamine (2 mg/kg) est injectée par voie intrapéritonéale à des lots de 12 rats, une demi-heure après l'administration de CRL 40914.
as §1

souris [6] = assay: Action on spontaneous motility (actimeter); assay type: in vivo
Description: Une demi-heure après avoir reçu le CRL 40914, des souris sont placées en actimètre où leur motilité est enregistrée pendant 30 min.
as §1

souris [7] = assay: Interaction with apomorphine, mouse; assay type: in vivo; settings: 16 mg/kg et 64 mg/kg i.p., une demi-heure avant apomorphine s.c. 1 ou 16 mg/kg
Description: Des lots de 6 souris reçoivent le CRL 40914 une demi-heure avant l'injection sous-cutanée d'apomorphine, à la dose de 1 mg/kg ou 16 mg/kg.
as §1

souris [8] = assay: Behavioural despair (immobility in water); assay type: in vivo; settings: souris en immersion, dès 4 mg/kg i.p.; effet particulièrement net à 64 mg/kg
Text: Une demi-heure après avoir reçu le CRL 40914 ou la désipramine, des lots de 10 souris sont plongés dans un bécher rempli d'eau sur une hauteur de 6 cm. On note la durée d'immobilité de la souris entre la 2ème et la 6ème min suivant son immersion.

rat = assay: Global behaviour and reactivity, rat; assay type: in vivo
Description: as §2, §3, §1

souris [9] = assay: Interaction with reserpine; assay type: in vivo; settings: 4 mg/kg mais surtout 16 mg/kg et 64 mg/kg i.p., 4 h après réserpine 2,5 mg/kg i.p.
Description: Quatre heures après l'injection intrapéritonéale de 2,5 mg/kg de réserpine, des lots de 6 souris reçoivent le CRL 40914.
as §1

souris [10] = assay: Interaction with yohimbine, spontaneous motility; assay type: in vivo; settings: yohimbine 0,5 mg/kg i.p.
Description: Des lots de 12 souris reçoivent la yohimbine (0,5 mg/kg i.p.) et le CRL 40914 respectivement 60 et 30 min avant d'être placées en actimètre où leur motilité est enregistrée pendant une demi-heure.

souris [11] = assay: Action on rectal temperature; assay type: in vivo
Description: as §2
Des lots de 6 souris reçoivent le CRL 40914; la température rectale est notée toutes les 30 min.

souris mâle [12] = assay: Acute toxicity by the i.p. route (DL-0, DL-50); assay type: in vivo; settings: voie i.p.
Description: as §2
Chez la souris mâle, la DL-0 (dose maximale non mortelle) par voie i.p. est supérieure à 128 mg/kg.
as §1
Chez la souris mâle, la DL-0 (dose maximale non mortelle) par voie i.p. est supérieure à 256 mg/kg, et la DL-50 par voie i.p. est de l'ordre de 500 mg/kg environ.

[13] = souris, 0,25 mg/kg, 1 mg/kg, 4 mg/kg et 16 mg/kg i.p.

In the case of `CCN1CCOC(c2ccccc2)C1` (stereo not drawn) [CRL 40914, Chlorhydratede 2-phényl-4-éthyl-morpholine], the “résultats cliniques (agent antidépresseur du SNC)” value (homme) is reported as “d'excellents résultats”, the “effet hypothermisant de l'oxotrémorine” value (souris [1]; 16 mg/kg et 64 mg/kg i.p.) is reported as “combat l'effet hypothermisant” and the “tremblements dus à l'oxotrémorine” value (souris [1]; 64 mg/kg i.p.) is reported as “diminue l'intensité des tremblements”. The “signes de stimulation cholinergique périphérique provoqués par l'oxotrémorine” value (souris [1]) was “laisse inchangés les signes de stimulation cholinergique périphériques”, the “apparition des convulsions et de la mort (anoxie asphyxique)” value (souris [2]; 1 mg/kg, 4 mg/kg et 16 mg/kg i.p., triiodoéthylate de gallamine 32 mg/kg i.p.) was “retard d'apparition des convulsions et, à un degré moindre, de la mort” and the “apparition des convulsions et de la mort (anoxie asphyxique)” value (souris [2]; dose plus élevée (above 16 mg/kg) i.p.) was “cet effet disparaît”. For the same compound, the “effet sur la pression artérielle” value [3] was “modérément hypotenseur”, the “temps de l'effet maximal sur la pression artérielle” value [3] was 7 h and the “variation de la pression artérielle” value ([3]; 7 h après) was -18%. For the same compound, the “pression artérielle (effet maximal)” value ([3]; 7 h après, valeur initiale 165) was 135 mm Hg, the “pression artérielle et fréquence cardiaque après 24 h” value ([3]; 24 h) was “sont revenues à leur valeur témoin” and the “fréquence cardiaque (minimum)” value ([3]; après 1,5 h, valeur initiale 350) was 270 battements/minute. For the same compound, the “combats (agressivité intergroupe)” value (souris mâle [4]; 4 mg/kg) was “supprime les combats entre les souris de 2 groupes différents”, the “durée de contact entre les souris (agressivité intergroupe)” value (souris mâle [4]; 64 mg/kg) was “diminue la durée de contact entre les souris” and the mydriase (souris [5]; 2 mg/kg i.p.) was “mydriase pendant 1 h”. For the same compound, the sédation (souris [5]; 2 mg/kg i.p.) was “sédation pendant 30 à 60 min”, the hypothermie (souris [5]; 2 mg/kg i.p., pendant 1 à 2 h) was -3,6 °C and the mydriase (souris [5]; 4 mg/kg i.p.) was “mydriase pendant 1 heure”. For the same compound, the sédation (souris [5]; 4 mg/kg i.p.) was “sédation pendant 30 à 60 min”, the hypothermie (souris [5]; 4 mg/kg i.p., pendant 1 h) was -2,2 °C and the excitation (souris [5]; 16 mg/kg i.p.) was “excitation pendant 30 min suivie d'une hyporéactivité au toucher”. The lacrymation (souris [5]; 16 mg/kg i.p.) was “lacrymation pendant 1 h”, the mydriase (souris [5]; 16 mg/kg i.p.) was “mydriase pendant 1 h” and the hypothermie (souris [5]; 16 mg/kg i.p., pendant 2 à 3 h) was -2,8 °C. The excitation (souris [5]; 64 mg/kg i.p.) was “excitation pendant 1 à 2 h avec manifestation de mouvements stéréotypés”, the mydriase (souris [5]; 64 mg/kg i.p.) was “mydriase pendant 1 h” and the “piloérection, salivation et lacrymation” value (souris [5]; 64 mg/kg i.p.) was “piloérection, salivation et lacrymation pendant 1 h”. The polypnée (souris [5]; 64 mg/kg i.p.) was “polypnée pendant 2 h”, the “stéréotypies amphétaminiques” value (rats) was “diminue nettement l'intensité des téréotypies amphétaminiques” and the “activité motrice spontanée” value (souris [6]; 64 mg/kg i.p.) was “hyperactivité nette”. For the same compound, the “activité motrice spontanée” value (souris [6]; dès 0,125 mg/kg i.p., maximum entre 0,5 mg/kg et 16 mg/kg) was “diminution de l'activité motrice spontanée”, the “action hypothermisante de l'apomorphine” value (souris [7]) was “s'oppose à l'action hypothermisante de l'apomorphine” and the “indices de verticalisation et de stéréotypies (apomorphine)” value (souris [7]) was “semble augmenter les indices de verticalisation et de stéréotypies”. For the same compound, the “durée d'immobilité” value (souris [8]) was “diminue la durée d'immobilité”, the mydriase (rat; rat, 0,5 mg/kg i.p.) was “mydriase pendant 1 à 2 h” and the mydriase (rat; rat, 2 mg/kg i.p.) was “mydriase pendant 1 à 2 h”. For the same compound, the sédation (rat; rat, 2 mg/kg i.p.) was “sédation pendant 1 h”, the mydriase (rat; rat, 8 mg/kg i.p.) was “mydriase pendant 2 h” and the piloérection (rat; rat, 8 mg/kg i.p.) was “piloérection pendant 1 à 2 h”. The sédation (rat; rat, 8 mg/kg i.p.) was “sédation pendant 2 h avec diminution de la réactivité au toucher mais augmentation de la réaction de peur”, the mydriase (rat; rat, 32 mg/kg i.p.) was “mydriase pendant plus de 3 h” and the “piloérection, salivation et lacrymation” value (rat; rat, 32 mg/kg i.p.) was “piloérection (pendant 3 h), salivation (pendant 1 h) et lacrymation (pendant 1 h)”. For the same compound, the réaction de peur (rat; rat, 32 mg/kg i.p.) was “augmentation de la réaction de peur pendant 3 h”, the sédation (rat; rat, 32 mg/kg i.p.) was “sédation pendant 3 h avec diminution de la réactivité au toucher et du tonus musculaire” and the “hypothermie et ptosis réserpiniques” value (souris [9]) was “s'oppose à l'hypothermie et au ptosis réserpinique”. The “hypomotilité produite par le CRL 40914 après yohimbine” value (souris [10]; CRL 40914 1 mg/kg) was “s'oppose à l'hypomotilité”, the “hypomotilité produite par le CRL 40914 après yohimbine” value (souris [10]; CRL 40914 16 mg/kg) was “ne modifie pas celle provoquée par 16 mg/kg” and the “durée de l'hypothermie” value (souris [11]; [13]) was 90 à 120 min. The température rectale (souris [11]; [13]) was “hypothermie maximale après 30 min”, the température rectale (souris [11]; souris, 64 mg/kg i.p.) was “hyperthermie qui apparaît à 30 min et qui fait ensuite place à une hypothermie modérée” and the “DL-0 (dose maximale non mortelle)” value (souris mâle [12]) was greater than 128 mg/kg.

Reference: patent EP0080940B1, “Derivatives of 2-phenyl-morpholine and medical compositions” (LABORATOIRE L. LAFON Société anonyme dite:, priority 1981, dated 1983)
